Experimental findings from ChEMBL document CHEMBL1128786, “Design, synthesis and evaluation of C/D-ring analogs of the fungal metabolite K-76 as potential complement inhibitors” (Bioorg Med Chem Lett, 1995) are described below.

Molecules are shown by their SMILES. Bounds are passed on as bounds.

A short description of experiment [1]: The concentration of compound required to cause 50% hemolysis in the absence of complement. The class given is functional, Ovis aries.
For experiment [2], the species on record is Homo sapiens. The experiment in a line: The concentration of compound required to inhibit complement induced hemolysis by 50%. The class given is functional.

In experiment [1], `CC1(C)Cc2c(Oc3ccccc3)cc(C=O)cc2O1` came in with an EC50 of more than 1120 µM. The compound also had an IC50 in experiment [2] of more than 1120 µM.
On to `CC1(C)Cc2c(O)cc(C=O)cc2O1`, for which, in experiment [1], the EC50 is more than 1560 µM. In addition, the IC50 in experiment [2] is more than 1560 µM.
In experiment [1], `CC1(C)Cc2c(Oc3ccccc3)cc(-c3nn[nH]n3)cc2O1` yielded an EC50 of 650 µM. Besides, inhibition in experiment [2] was half-maximal at 195 µM (IC50).
On to `CC1(C)Cc2c(Oc3ccccc3)cc(C(=O)O)cc2O1`, for which, in experiment [1], the EC50 was more than 1060 µM. The IC50 in experiment [2] was more than 1060 µM.
In experiment [1], `COc1cc(-c2nn[nH]n2)cc2c1CC(C)(C)O2` registered an EC50 of more than 1220 µM. The compound further yielded an IC50 in experiment [2] of 245 µM.
In the same order, the values of `COc1cc(C(=O)O)cc2c1CC(C)(C)O2` are more than 1350 µM and more than 1350 µM.
In the same order, the values of `CC1(C)Cc2c(O)cc(C(=O)O)cc2O1` are more than 1440 µM and more than 1440 µM.
In experiment [1], `C[C@@H]1CCC2C(C)(C)[C@H](O)[C@H](O)C[C@]2(C)[C@@]12Cc1c(O)cc(C(=O)O)c(C=O)c1O2` (some centres not stated) showed an EC50 of more than 680 µM.
For `COc1cc(C=O)cc2c1CC(C)(C)O2`, the EC50 in experiment [1] was more than 1460 µM. In addition, the IC50 in experiment [2] stood at 1100 µM.
